Values of other authors in patent publication US20230228654A1, “Blood Sampling Device and Method for PEth Measurement” (CAPITAINER AB, priority 2020, published 2023).

System: PLD
Conditions: Schröck et al, Alcohol 2018; cited from earlier work

SMILES	potency as PLD inhibitor
O=C(NCCN1CCC(n2c(=O)[nH]c3cc(Cl)ccc32)CC1)c1ccc(F)cc1 [halopemide]	low potency
O=C(NCCN1CCC(n2c(=O)[nH]c3ccccc32)CC1)c1cc2cc(F)ccc2[nH]1 [FIPI, 5-fluoro-2-indolyl-deschlorohalopemide]	low potency
